Literature values as cited in US20090306103A1, “PYRIDONECARBOXAMIDE DERIVATIVES USEFUL IN TREATING HYPER-PROLIFERATIVE AND ANGIOGENESIS DISORDERS” (priority 2006, published 2009).

Legend:
Bcr-Abl E255K mutant = conditions: read-out: IC50 against E255K mutant; biochemical assay
[1] = test system: Bcr-Abl Imanitib resistant mutations
Bcr-Abl = conditions: greater potency than Imatinib

IC50 (Bcr-Abl E255K mutant): 400 nM | potency of Bcr-Abl kinase inhibition relative to Imatinib (Bcr-Abl): 20 fold
Structure (SMILES): Cc1cn(-c2cc(NC(=O)c3ccc(C)c(Nc4nccc(-c5cccnc5)n4)c3)cc(C(F)(F)F)c2)cn1 [AMN-107]
inhibition of Imanitib resistant mutations [1]: inhib most Imanitib resistant mutations except for T315I
